Measured values from US20230085307A1, “PYRIDAZINONE COMPOUND AND HERBICIDE” (NISSAN CHEMICAL CORPORATION, priority 2019, published 2023).

What was measured:
green foxtail [1] = assay: Test Example 4: herbicidal effect by soil treatment (Table 19, symbol G); format: in vivo, green foxtail (Setaria viridis); conditions: amount of applied herbicide 320 g/ha
Method in brief: (§1)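 Applied as a water-diluted emulsion, the compound was sprayed onto soil covering newly sown seeds. Evaluation came three weeks after application, in a greenhouse held at 25° C. to 30° C.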

southern crabgrass = assay: Test Example 4: herbicidal effect by soil treatment (Table 19, symbol F); format: in vivo, southern crabgrass (Digitaria ciliaris); conditions: amount of applied herbicide 320 g/ha
Method in brief: as §1

redroot pigweed [2] = assay: Test Example 5: herbicidal effect by foliage application, plastic box (Table 20, symbol N); format: in vivo, redroot pigweed (Amaranthus retroflexus); conditions: amount of applied herbicide 320 g/ha; foliage application after 14-day growth; evaluated three weeks after application
Method in brief: (§2)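 Sow seeds spot-wise in sterilized diluvial soil; cover with ~1.5 cm soil. Grow 14 days in greenhouse, 25° C. to 30° C. Spray foliage with emulsion diluted to predetermined amount. Rate effect after 3 weeks.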

Chinese sprangletop = assay: Test Example 3: herbicidal effect by foliage application, Wagner pot (Table 18, symbol D); format: in vivo, chinese sprangletop (Leptochloa chinensis); conditions: 320 g/ha
Method in brief: (§3)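 Plants were sown in alluvial soil held under 0.1–0.5 cm standing water and grown 14 days in a greenhouse at 25–30 °C. An emulsifiable formulation, water-diluted to the set dose, was then sprayed onto the foliage, and effects were scored three weeks later using previously defined criteria.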

blackgrass [3] = assay: Test Example 5: herbicidal effect by foliage application, plastic box (Table 20, symbol J); format: in vivo, blackgrass (Alopecurus myosuroides); conditions: amount of applied herbicide 320 g/ha; foliage application after 14-day growth; evaluated three weeks after application
Method in brief: as §2

persian speedwell = assay: Test Example 5: herbicidal effect by foliage application, plastic box (Table 20, symbol R); format: in vivo, Persian speedwell (Veronica persica); conditions: amount of applied herbicide 320 g/ha; foliage application after 14-day growth; evaluated three weeks after application
Method in brief: as §2

lambsquarters = assay: Test Example 5: herbicidal effect by foliage application, plastic box (Table 20, symbol O); format: in vivo, lambsquarters (Chenopodium album); conditions: amount of applied herbicide 320 g/ha; foliage application after 14-day growth; evaluated three weeks after application
Method in brief: as §2

barnyard grass [4] = assay: Test Example 5: herbicidal effect by foliage application, plastic box (Table 20, symbol H); format: in vivo, barnyard grass (Echinochloa crus-galli); conditions: amount of applied herbicide 320 g/ha; foliage application after 14-day growth; evaluated three weeks after application
Method in brief: as §2

rice flat sedge = assay: Test Example 3: herbicidal effect by foliage application, Wagner pot (Table 18, symbol E); format: in vivo, rice flat sedge (Cyperus iria); conditions: 320 g/ha
Method in brief: as §3

Japanese bulrush = assay: Test Example 1: herbicidal activity, application before weed generation under submerged conditions (Table 16, symbol B); format: in vivo, Japanese bulrush (Schoenoplectus juncoides); conditions: amount of applied herbicide 320 g/ha
Method in brief: (§4)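 Submerged Wagner pots (alluvial soil, 4 cm water) sown with weed seeds and planted with 2.5-leaf rice seedlings; emulsifiable concentrate diluted in water applied to water surface on sowing day. Held in greenhouse at 25-30 °C; injury scored 0-5 by herbicidal rate after three weeks.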

blackgrass [5] = assay: Test Example 4: herbicidal effect by soil treatment (Table 19, symbol J); format: in vivo, blackgrass (Alopecurus myosuroides); conditions: amount of applied herbicide 320 g/ha
Method in brief: as §1

barnyard grass [6] = assay: Test Example 3: herbicidal effect by foliage application, Wagner pot (Table 18, symbol H); format: in vivo, barnyard grass (Echinochloa crus-galli); conditions: 320 g/ha
Method in brief: as §3

green foxtail [7] = assay: Test Example 5: herbicidal effect by foliage application, plastic box (Table 20, symbol G); format: in vivo, green foxtail (Setaria viridis); conditions: amount of applied herbicide 320 g/ha; foliage application after 14-day growth; evaluated three weeks after application
Method in brief: as §2

redroot pigweed [8] = assay: Test Example 4: herbicidal effect by soil treatment (Table 19, symbol N); format: in vivo, redroot pigweed (Amaranthus retroflexus); conditions: amount of applied herbicide 320 g/ha
Method in brief: as §1

Italian ryegrass = assay: Test Example 5: herbicidal effect by foliage application, plastic box (Table 20, symbol K); format: in vivo, Italian ryegrass (Lolium multiflorum); conditions: amount of applied herbicide 320 g/ha; foliage application after 14-day growth; evaluated three weeks after application
Method in brief: as §2

windgrass = assay: Test Example 5: herbicidal effect by foliage application, plastic box (Table 20, symbol L); format: in vivo, windgrass (Apera spica-venti); conditions: amount of applied herbicide 320 g/ha; foliage application after 14-day growth; evaluated three weeks after application
Method in brief: as §2

velvetleaf = assay: Test Example 5: herbicidal effect by foliage application, plastic box (Table 20, symbol M); format: in vivo, velvetleaf (Abutilon theophrasti); conditions: amount of applied herbicide 320 g/ha; foliage application after 14-day growth; evaluated three weeks after application
Method in brief: as §2

late watergrass = assay: Test Example 1: herbicidal activity, application before weed generation under submerged conditions (Table 16, symbol A); format: in vivo, late watergrass (Echinochloa oryzicola); conditions: amount of applied herbicide 320 g/ha
Method in brief: as §4

Row | SMILES | Herbicidal effect by soil treatment, G: green foxtail (green foxtail [1]) | Herbicidal effect by soil treatment, F: southern crabgrass (southern crabgrass) | Herbicidal effect by foliage application, N: redroot pigweed (redroot pigweed [2]) | herbicidal effect on Chinese sprangletop (D) (Chinese sprangletop) | Herbicidal effect by foliage application, J: blackgrass (blackgrass [3]) | Herbicidal effect by foliage application, R: persian speedwell (persian speedwell) | Herbicidal effect by foliage application, O: lambsquarters (lambsquarters) | Herbicidal effect by foliage application, H: barnyard grass (barnyard grass [4]) | herbicidal effect on rice flat sedge (E) (rice flat sedge) | Herbicidal effect, B: Japanese bulrush (Japanese bulrush) | Herbicidal effect by soil treatment, J: blackgrass (blackgrass [5]) | herbicidal effect on barnyard grass (H) (barnyard grass [6]) | Herbicidal effect by foliage application, G: green foxtail (green foxtail [7]) | Herbicidal effect by soil treatment, N: redroot pigweed (redroot pigweed [8]) | Herbicidal effect by foliage application, K: Italian ryegrass (Italian ryegrass) | Herbicidal effect by foliage application, L: windgrass (windgrass) | Herbicidal effect by foliage application, M: velvetleaf (velvetleaf) | Herbicidal effect, A: late watergrass (late watergrass) | G: green foxtail, herbicidal effect grade (green foxtail [1]) | F: southern crabgrass, herbicidal effect grade (southern crabgrass) | further results
1 | COc1ccc(-c2sc3c(C)cccc3c2-c2c(O)c(C)nn(C)c2=O)cc1 [4-110] | 0 (Herbicidal rate of 5% or less (almost no effect)) | 0 (Herbicidal rate of 5% or less (almost no effect)) | 5 (Herbicidal rate of 90% or more (almost completely withered)) | 0 (Herbicidal rate of 5% or less (almost no effect)) | 4 (Herbicidal rate of 70% or more and less than 90%) | 5 (Herbicidal rate of 90% or more (almost completely withered)) | 5 (Herbicidal rate of 90% or more (almost completely withered)) | 2 (Herbicidal rate of 20% or more and less than 40%) | 5 (Herbicidal rate of 90% or more (almost completely withered)) | 5 (Herbicidal rate of 90% or more (almost completely withered)) | 0 (Herbicidal rate of 5% or less (almost no effect)) | 5 (Herbicidal rate of 90% or more (almost completely withered)) | 3 (Herbicidal rate of 40% or more and less than 70%) | 5 (Herbicidal rate of 90% or more (almost completely withered)) | 5 (Herbicidal rate of 90% or more (almost completely withered)) | 4 (Herbicidal rate of 70% or more and less than 90%) | 5 (Herbicidal rate of 90% or more (almost completely withered)) | 5 (Herbicidal rate of 90% or more (almost completely withered)) |  |  | 
2 | CCSc1ccc(-c2sc3c(C)cccc3c2-c2c(O)c(C)nn(C)c2=O)cc1 [4-124] | 5 (Herbicidal rate of 90% or more (almost completely withered)) | 4 (Herbicidal rate of 70% or more and less than 90%) | 5 (Herbicidal rate of 90% or more (almost completely withered)) | 3 (Herbicidal rate of 40% or more and less than 70%) | 5 (Herbicidal rate of 90% or more (almost completely withered)) | 5 (Herbicidal rate of 90% or more (almost completely withered)) | 5 (Herbicidal rate of 90% or more (almost completely withered)) | 5 (Herbicidal rate of 90% or more (almost completely withered)) | 5 (Herbicidal rate of 90% or more (almost completely withered)) | 3 (Herbicidal rate of 40% or more and less than 70%) | 2 (Herbicidal rate of 20% or more and less than 40%) | 5 (Herbicidal rate of 90% or more (almost completely withered)) | 5 (Herbicidal rate of 90% or more (almost completely withered)) | 5 (Herbicidal rate of 90% or more (almost completely withered)) | 5 (Herbicidal rate of 90% or more (almost completely withered)) | 5 (Herbicidal rate of 90% or more (almost completely withered)) | 5 (Herbicidal rate of 90% or more (almost completely withered)) | 4 (Herbicidal rate of 70% or more and less than 90%) |  |  | 
3 | CCCC(=O)Oc1c(C)nn(C)c(=O)c1-c1c(-c2ccccc2OC)sc2cc(F)c(F)cc12 [5-012] |  |  | 4 (Herbicidal rate of 70% or more and less than 90%) | 2 (Herbicidal rate of 20% or more and less than 40%) | 4 (Herbicidal rate of 70% or more and less than 90%) | 3 (Herbicidal rate of 40% or more and less than 70%) | 3 (Herbicidal rate of 40% or more and less than 70%) | 2 (Herbicidal rate of 20% or more and less than 40%) | 3 (Herbicidal rate of 40% or more and less than 70%) | 3 (Herbicidal rate of 40% or more and less than 70%) |  | 4 (Herbicidal rate of 70% or more and less than 90%) | 1 (Herbicidal rate of 5% or more and less than 20%) |  | 0 (Herbicidal rate of 5% or less (almost no effect)) | 1 (Herbicidal rate of 5% or more and less than 20%) | 3 (Herbicidal rate of 40% or more and less than 70%) | 4 (Herbicidal rate of 70% or more and less than 90%) | 3 (Herbicidal rate of 40% or more and less than 70%) | 3 (Herbicidal rate of 40% or more and less than 70%) | J: blackgrass, herbicidal effect grade (blackgrass [5]): 3 (Herbicidal rate of 40% or more and less than 70%); N: redroot pigweed, herbicidal effect grade (redroot pigweed [8]): 5 (Herbicidal rate of 90% or more (almost completely withered))
4 | COc1ccc(-c2sc3cc(Cl)c(Cl)cc3c2-c2c(O)c(C)nn(C)c2=O)cc1 [5-043] |  |  | 3 (Herbicidal rate of 40% or more and less than 70%) | 3 (Herbicidal rate of 40% or more and less than 70%) | 0 (Herbicidal rate of 5% or less (almost no effect)) | 5 (Herbicidal rate of 90% or more (almost completely withered)) | 3 (Herbicidal rate of 40% or more and less than 70%) | 0 (Herbicidal rate of 5% or less (almost no effect)) | 4 (Herbicidal rate of 70% or more and less than 90%) | 2 (Herbicidal rate of 20% or more and less than 40%) |  | 3 (Herbicidal rate of 40% or more and less than 70%) | 0 (Herbicidal rate of 5% or less (almost no effect)) |  | 0 (Herbicidal rate of 5% or less (almost no effect)) | 0 (Herbicidal rate of 5% or less (almost no effect)) | 4 (Herbicidal rate of 70% or more and less than 90%) | 5 (Herbicidal rate of 90% or more (almost completely withered)) | 0 (Herbicidal rate of 5% or less (almost no effect)) | 0 (Herbicidal rate of 5% or less (almost no effect)) | J: blackgrass, herbicidal effect grade (blackgrass [5]): 0 (Herbicidal rate of 5% or less (almost no effect)); N: redroot pigweed, herbicidal effect grade (redroot pigweed [8]): 0 (Herbicidal rate of 5% or less (almost no effect))
